Measured values: patent US11419918B2, “Treatment of biliary cirrhosis based on oxyntomodulin analogue GLP-1R/GCGR dual-target agonist peptide” (Shenzhen Turier Biotech Co., Ltd., priority 2017, dated 2022)
Numbered stars: 1 amine (or outer) side, 2 acyl side, 3 side chain; on linkers, the order of the positions; unused ones are H or OH. Square brackets hold non-standard residues; d marks the D form. Primed or numbered codes have the meaning given here. Side chains are listed from the residue outwards. Ends that are not written are not given here. * marks the point of attachment. C18 diacid = O=C(O)CCCCCCCCCCCCCCCCC(=O)*; C16 diacid = O=C(O)CCCCCCCCCCCCCCC(=O)*; γGlu = O=C(O)[C@H](CCC(=O)[*:2])N[*:1]; Stearoyl = CCCCCCCCCCCCCCCCCC(=O)*; Palmitoyl = CCCCCCCCCCCCCCCC(=O)*; Nle = CCCC[C@H](N)C(=O)O; PEG2′ = not defined here; Aib = CC(C)(N)C(=O)O

Test system: human hepatic stellate cells (LX-2)
Assay: In vitro inhibition of hepatic fibrosis: expression of activation marker α-SMA in LX-2 cells (Western Blot, β-actin internal reference)
Format: cell-based
Settings: 10.0 μM, 48 hours, negative control (PBS) = 100%
Experimental: Hepatic stellate cell strain LX-2 was selected to study and observe the effect of different doses of test substances on the expression of LX-2 cell activation marker α-SMA. Hepatic stellate cell LX-2 was laid on 35 mm cell culture plate, cultured with DMEM (high glucose)+10% FBS+1% double-antibody culture medium (Thermo Fisher), placed overnight when the cells grew to 70% convergence at 37° C. and under the condition of 5% CO2, and treated with the above GLP-1R/GCGR dual target agonist polypeptides 1-48 (dissolved in PBS) for 48 hours the next day morning to extract cell protein, carry out Western Blot, and take β-actin as internal reference and analyze the expression quantities of α-SMA and β-actin by a gray level of Image J 1.50i. PBS with the same volume as that in experimental group was added in negative control. […] The integrating gray level of α-SMA/β-actin in the negative control group was 100% to analyze the in vitro inhibition activity of hepatic fibrosis of tested polypeptide.

| Substance | Relative expression of α-SMA (α-SMA/β-actin, %) [%] |
| --- | --- |
| His-(D-Ser)-Gln-Gly-Thr-Phe-Thr-Ser-Asp-Tyr-Ser-Lys-Tyr-Leu-Asp-Glu-Lys-Ala-Ala-Lys(PEG2-PEG2-γGlu-CO(CH2)16CO2H)-Glu-Phe-Ile-Glu-Trp-Leu-Leu-Asn-Gly-Gly-Pro-Ser-Ser-Gly-Ala-Pro-Pro-Pro-Ser-NH2 (H[dS]QGTFTSDYSKYLDEKAAK([PEG2′-PEG2′-γGlu-C18 diacid])EFIEWLLNGGPSSGAPPPS-NH2) [Compound 26] | 44.44 |
| His-(D-Ser)-Gln-Gly-Thr-Phe-Thr-Ser-Asp-Lys(PEG2-PEG2-γGlu-CO(CH2)14CH3)-Ser-Lys-Tyr-Leu-Asp-Aib-Arg-Arg-Ala-Gln-Asp-Phe-Val-Gln-Trp-Leu-Leu-Asn-Thr-Gly-Gly-Pro-Ser-Ser-Gly-Ala-Pro-Pro-Pro-Ser-NH2 (H[dS]QGTFTSDK([PEG2′-PEG2′-γGlu-Palmitoyl])SKYLD[Aib]RRAQDFVQWLLNTGGPSSGAPPPS-NH2) [Compound 43] | 42.34 |
| His-Aib-Gln-Gly-Thr-Phe-Thr-Ser-Asp-Lys(PEG2-PEG2-γGlu-CO(CH2)14CO2H)-Ser-Lys-Tyr-Leu-Asp-Aib-Arg-Arg-Ala-Gln-Asp-Phe-Val-Gln-Trp-Leu-Leu-Asp-Gly-Gly-Pro-Ser-Ser-Gly-Ala-Pro-Pro-Pro-Ser-NH2 (H[Aib]QGTFTSDK([PEG2′-PEG2′-γGlu-C16 diacid])SKYLD[Aib]RRAQDFVQWLLDGGPSSGAPPPS-NH2) [Compound 11] | 41.78 |
| His-Aib-Gln-Gly-Thr-Phe-Thr-Ser-Asp-Lys(PEG2-PEG2-γGlu-CO(CH2)16CH3)-Ser-Lys-Tyr-Leu-Asp-Aib-Arg-Arg-Ala-Gln-Asp-Phe-Val-Gln-Trp-Leu-Leu-Asp-Gly-Gly-Pro-Ser-Ser-Gly-Ala-Pro-Pro-Pro-Ser-NH2 (H[Aib]QGTFTSDK([PEG2′-PEG2′-γGlu-Stearoyl])SKYLD[Aib]RRAQDFVQWLLDGGPSSGAPPPS-NH2) [Compound 12] | 36.99 |
| His-(D-Ser)-Gln-Gly-Thr-Phe-Thr-Ser-Asp-Tyr-Ser-Lys-Tyr-Leu-Asp-Ser-Lys(PEG2-PEG2-γGlu-CO(CH2)16CO2H)-Ala-Ala-His-Asp-Phe-Val-Glu-Trp-Leu-Leu-Asn-Gly-Gly-Pro-Ser-Ser-Gly-Ala-Pro-Pro-Pro-Ser-NH2 (H[dS]QGTFTSDYSKYLDSK([PEG2′-PEG2′-γGlu-C18 diacid])AAHDFVEWLLNGGPSSGAPPPS-NH2) [Compound 21] | 37.66 |
| His-(D-Ser)-Gln-Gly-Thr-Phe-Thr-Ser-Asp-Tyr-Ser-Lys-Tyr-Leu-Asp-Lys(PEG2-PEG2-CO(CH2)14CH3)-Arg-Arg-Ala-Gln-Asp-Phe-Val-Gln-Trp-Leu-Leu-Asn-Thr-Gly-Gly-Pro-Ser-Ser-Gly-Ala-Pro-Pro-Pro-Ser-NH2 (H[dS]QGTFTSDYSKYLDK([PEG2′-PEG2′-Palmitoyl])RRAQDFVQWLLNTGGPSSGAPPPS-NH2) [Compound 42] | 38.11 |
| His-(D-Ser)-Gln-Gly-Thr-Phe-Thr-Ser-Asp-Tyr-Ser-Lys-Tyr-Leu-Asp-Glu-Lys-Ala-Ala-Lys(PEG2-PEG2-γGlu-CO(CH2)14CO2H)-Glu-Phe-Ile-Glu-Trp-Leu-Leu-Asn-Gly-Gly-Pro-Ser-Ser-Gly-Ala-Pro-Pro-Pro-Ser-NH2 (H[dS]QGTFTSDYSKYLDEKAAK([PEG2′-PEG2′-γGlu-C16 diacid])EFIEWLLNGGPSSGAPPPS-NH2) [Compound 27] | 32.34 |
| His-Aib-Gln-Gly-Thr-Phe-Thr-Ser-Asp-Lys(PEG2-PEG2-γGlu-CO(CH2)16CH3)-Ser-Lys-Tyr-Leu-Asp-Glu-Arg-Arg-Ala-Gln-Asp-Phe-Val-Gln-Trp-Leu-Leu-Asp-Gly-Gly-Pro-Ser-Ser-Gly-Ala-Pro-Pro-Pro-Ser-NH2 (H[Aib]QGTFTSDK([PEG2′-PEG2′-γGlu-Stearoyl])SKYLDERRAQDFVQWLLDGGPSSGAPPPS-NH2) [Compound 14] | 42.80 |
| His-(D-Ser)-Gln-Gly-Thr-Phe-Thr-Ser-Asp-Tyr-Ser-Lys-Tyr-Leu-Asp-Lys(PEG2-PEG2-γGlu-CO(CH2)16CO2H)-Arg-Arg-Ala-Gln-Asp-Phe-Val-Gln-Trp-Leu-Met-Asn-Thr-Gly-Gly-Pro-Ser-Ser-Gly-Ala-Pro-Pro-Pro-Ser-NH2 (H[dS]QGTFTSDYSKYLDK([PEG2′-PEG2′-γGlu-C18 diacid])RRAQDFVQWLMNTGGPSSGAPPPS-NH2) [Compound 34] | 38.18 |
| His-(D-Ser)-Gln-Gly-Thr-Phe-Thr-Ser-Asp-Lys(PEG2-PEG2-CO(CH2)14CH3)-Ser-Lys-Tyr-Leu-Asp-Aib-Arg-Arg-Ala-Gln-Asp-Phe-Val-Gln-Trp-Leu-Met-Asn-Thr-Gly-Gly-Pro-Ser-Ser-Gly-Ala-Pro-Pro-Pro-Ser-NH2 (H[dS]QGTFTSDK([PEG2′-PEG2′-Palmitoyl])SKYLD[Aib]RRAQDFVQWLMNTGGPSSGAPPPS-NH2) [Compound 31] | 36.89 |
| His-(D-Ser)-Gln-Gly-Thr-Phe-Thr-Ser-Asp-Tyr-Ser-Lys-Tyr-Leu-Asp-Glu-Lys-Ala-Ala-Lys(PEG2-PEG2-γGlu-CO(CH2)14CH3)-Glu-Phe-Ile-Glu-Trp-Leu-Leu-Asn-Gly-Gly-Pro-Ser-Ser-Gly-Ala-Pro-Pro-Pro-Ser-NH2 (H[dS]QGTFTSDYSKYLDEKAAK([PEG2′-PEG2′-γGlu-Palmitoyl])EFIEWLLNGGPSSGAPPPS-NH2) [Compound 29] | 49.36 |
| His-(D-Ser)-Gln-Gly-Thr-Phe-Thr-Ser-Asp-Tyr-Ser-Lys(PEG2-PEG2-CO(CH2)14CH3)-Lys-Leu-Asp-Aib-Arg-Arg-Ala-Gln-Asp-Phe-Val-Gln-Trp-Leu-Met-Asn-Thr-Gly-Gly-Pro-Ser-Ser-Gly-Ala-Pro-Pro-Pro-Ser-NH2 (H[dS]QGTFTSDYSK([PEG2′-PEG2′-Palmitoyl])KLD[Aib]RRAQDFVQWLMNTGGPSSGAPPPS-NH2) [Compound 9] | 41.86 |
| His-(D-Ser)-Gln-Gly-Thr-Phe-Thr-Ser-Asp-Tyr-Ser-Lys-Tyr-Leu-Asp-Ser-Lys(PEG2-PEG2-γGlu-CO(CH2)16CH3)-Ala-Ala-His-Asp-Phe-Val-Glu-Trp-Leu-Leu-Arg-Ala-NH2 (H[dS]QGTFTSDYSKYLDSK([PEG2′-PEG2′-γGlu-Stearoyl])AAHDFVEWLLRA-NH2) [Compound 25] | 53.34 |
| His-(D-Ser)-Gln-Gly-Thr-Phe-Thr-Ser-Asp-Tyr-Ser-Lys-Tyr-Leu-Asp-Lys(PEG2-PEG2-CO(CH2)16CO2H)-Arg-Arg-Ala-Gla-Asp-Phe-Val-Gln-Trp-Leu-Met-Asn-Thr-Gly-Gly-Pro-Ser-Ser-Gly-Ala-Pro-Pro-Pro-Ser-NH2 (H[dS]QGTFTSDYSKYLDK([PEG2′-PEG2′-C18 diacid])RRAQDFVQWLMNTGGPSSGAPPPS-NH2; also: position 20: name writes Gla, letters give Q) [Compound 35] | 51.28 |
| His-(D-Ser)-Gln-Gly-Thr-Phe-Thr-Ser-Asp-Tyr-Ser-Lys-Tyr-Leu-Asp-Lys(PEG2-PEG2-CO(CH2)16CO2H)-Arg-Arg-Ala-Gln-Asp-Phe-Val-Gln-Trp-Leu-Nle-Asn-Thr-Gly-Gly-Pro-Ser-Ser-Gly-Ala-Pro-Pro-Pro-Ser-NH2 (H[dS]QGTFTSDYSKYLDK([PEG2′-PEG2′-C18 diacid])RRAQDFVQWL[Nle]NTGGPSSGAPPPS-NH2) [Compound 41] | 42.10 |
